Data taken from patent US11882836B2, “1-amino-1-cyclopropanecarboxylic acid mixtures and uses thereof” (Valent BioSciences LLC, priority 2020, dated 2024).

Columns and labels:
Assay type in all cases: in vivo
[1] = test system: Prunus (stone fruit) plants; test: Bud break and shoot development of Prunus plants, ACC and CAN15 mixtures (Example 4); settings: for Mean FW: harvest
Description: (§1) To determine if the mixtures provided unexpected results, the observed combined efficacy (“OCE”) was divided by the expected combined efficacy (“ECE”) wherein the expected ECE is calculated by the Abbott method: ECE=A+B−(AB/100),
If the ratio between the OCE of the mixture and the ECE of the mixture is greater than 1, then greater than expected interactions are present in the mixture.
(§2) To assess the ability of mixtures of the invention to promote and synchronize bud break, these mixtures were applied to Prunus (stone fruit) plants in the greenhouse and examined for bud break (initiation of growth) and subsequent shoot development. ACC, Dormex (50% HC), and 15-0-0 fertilizers (CAN15), and mixtures thereof were each applied individually or sequentially (co-applied) to the shoots of Prunus plants.

Malus (apple) rootstocks = test: Bud break and shoot development of Malus (apple) rootstocks after shoot application (Example 1); settings: for Average Number of Broken Buds Per Malus Plant at Harvest / Average Number of Broken Nodes Per Centimeter of Shoot at Harvest / Fresh Weight at Harvest / Fresh Weight per Bud at Harvest: 28 days; for Fresh Weight at Harvest / Fresh Weight per Bud at Harvest: Malus
Excerpt: To assess the ability of mixtures of the invention to promote and synchronize bud break, these mixtures were applied to field-grown Malus (apple) rootstocks and examined for bud break (initiation of growth) and subsequent shoot development. ACC, Dormex® (50% HC), 15-0-0 (Erger®) and 17-0-0 fertilizers (CAN17), and mixtures thereof were each applied individually or sequentially (co-applied) to the shoots of potted Malus rootstocks that were pruned to a height of 25 centimeters. Plants were evaluated for bud break at 28 days after treatment.
as §1
(§3) wherein ECE is the expected combined efficacy and in which A and B are the speed of bud break relative to control, the number of buds broken per plant relative to control, shoot length relative to control or shoot weight relative to control given by the single active ingredients. If the ratio between the OCE of the mixture and the ECE of the mixture is greater than 1, then greater than expected interactions are present in the mixture. (Gisi, Synergistic Interaction of Fungicides in Mixtures, The American Phytopathological Society, 86:11, 1273-1279, 1996).

[2] = test system: Prunus (stone fruit) plants; test: Bud break and shoot development of Prunus plants, ACC and CAN17 mixtures (Example 3); settings: for Mean FW: harvest
Description: as §1, §3
as §2, with “Dormex®” for “Dormex”, “17-0-0” for “15-0-0”, “(CAN17),” for “(CAN15),”, “plants. Plants were evaluated for bud break from 4-21 days after treatment.” for “plants.”

[3] = test system: Prunus (stone fruit) plants; test: Bud break and shoot development of Prunus (stone fruit) plants in the greenhouse (Example 2); settings: for FW (grams): harvest, 28 days
Description: as §1, §3
as §2, with “Dormex®” for “Dormex”, “HC), 15-0-0 (Erger®)” for “HC),”, “17-0-0” for “15-0-0”, “(CAN17),” for “(CAN15),”, “plants. Plants were evaluated for bud break at 28 days after treatment.” for “plants.”

NC1(C(=O)O)CC1 [ACC, 1-amino-1-cyclopropanecarboxylic acid]
0-100% BB ([1]; ACC 100 ppm): 6 days | 50% BB ([1]; ACC 100 ppm): 10 days | Mean FW ([1]; ACC 100 ppm): 1.01 g | 0-100% BB ([1]; ACC 300 ppm): 5 days | 50% BB ([1]; ACC 300 ppm): 10 days | Mean FW ([1]; ACC 300 ppm): 1.46 g | 0-100% BB ([1]; ACC 600 ppm): 7 days | 50% BB ([1]; ACC 600 ppm): 9 days | Mean FW ([1]; ACC 600 ppm): 2.57 g | 50% BB (Malus (apple) rootstocks; ACC 300 ppm): 14 days | Average Number of Broken Buds Per Malus Plant at Harvest (Malus (apple) rootstocks; ACC 300 ppm): 6.13 | Average Number of Broken Nodes Per Centimeter of Shoot at Harvest (Malus (apple) rootstocks; ACC 300 ppm): 0.25 | Fresh Weight at Harvest (Malus (apple) rootstocks; ACC 300 ppm): 4.34 grams | Fresh Weight per Bud at Harvest (Malus (apple) rootstocks; ACC 300 ppm): 0.66 grams | 50% BB (Malus (apple) rootstocks; ACC 1000 ppm): 16 days | Average Number of Broken Buds Per Malus Plant at Harvest (Malus (apple) rootstocks; ACC 1000 ppm): 7.38 | Average Number of Broken Nodes Per Centimeter of Shoot at Harvest (Malus (apple) rootstocks; ACC 1000 ppm): 0.30 | Fresh Weight at Harvest (Malus (apple) rootstocks; ACC 1000 ppm): 3.05 grams | Fresh Weight per Bud at Harvest (Malus (apple) rootstocks; ACC 1000 ppm): 0.46 grams | 0-100% BB ([2]; ACC 100 ppm): 10 days | 50% BB ([2]; ACC 100 ppm): 11 days | Mean FW ([2]; ACC 100 ppm): 0.52 g | 0-100% BB ([2]; ACC 300 ppm): 13 days | 50% BB ([2]; ACC 300 ppm): 10 days | Mean FW ([2]; ACC 300 ppm): 1.84 g | 0-100% BB ([2]; ACC 600 ppm): 12 days | 50% BB ([2]; ACC 600 ppm): 10 days | Mean FW ([2]; ACC 600 ppm): 1.28 g | 50% BB ([3]; ACC 300 ppm): 12 days | FW (grams) ([3]; ACC 300 ppm): 3.95 grams | 50% BB ([3]; ACC 1000 ppm): 7 days | FW (grams) ([3]; ACC 1000 ppm): 3.81 grams

N#CN [HC, hydrogen cyanamide, reference compound]
0-100% BB ([1]; HC 1% (v/v)): 6 days | 50% BB ([1]; HC 1% (v/v)): 9 days | Mean FW ([1]; HC 1% (v/v)): 3.15 g | 50% BB (Malus (apple) rootstocks; HC 1% (v/v)): 12 days | Average Number of Broken Buds Per Malus Plant at Harvest (Malus (apple) rootstocks; HC 1% (v/v)): 8.13 | Average Number of Broken Nodes Per Centimeter of Shoot at Harvest (Malus (apple) rootstocks; HC 1% (v/v)): 0.325 | Fresh Weight at Harvest (Malus (apple) rootstocks; HC 1% (v/v)): 7.99 grams | Fresh Weight per Bud at Harvest (Malus (apple) rootstocks; HC 1% (v/v)): 0.98 grams | 0-100% BB ([2]; HC 1% (v/v)): 6 days | 50% BB ([2]; HC 1% (v/v)): 9 days | Mean FW ([2]; HC 1% (v/v)): 1.64 g | 50% BB ([3]; HC 1% (v/v)): 7 days | FW (grams) ([3]; HC 1% (v/v)): 4.76 grams
